The values below come from patent publication US20050175550A1, “Compositions for oral use” (priority 2000, published 2005).

What all share (experiment): MIC by agar plate dilution method on standard strains (Example 3)
Common to all, as to type: cell-based
Holding throughout (settings): read-out: MIC

The test system of experiment [1] is Moraxella (Branhamella) catarrhalis ATCC25240. How it is done: (§1) Drug solutions at a concentration 10 times as high as the maximum applicable concentration were prepared as original solutions of test drugs given in Table 2 (as to solvents used for this purpose, reference should be made also to Table 2). Serial two-fold dilution series of the original solutions were prepared at desired stages, and 1 ml each of the diluted drug solutions was added to 9 ml of media given in Table 3 to prepare drug plates. […] • 1) Bacterial solutions stocked at −80° C. were inoculated on agar media (as to media used, reference should be made to Table 3), and then incubated at 37° C. overnight. When desired, subculturing was conducted once more on the same agar media (by overnight incubation at 37° C.). • 2) Colonies growing on the agar media were sampled by a platinum loop, suspended in liquid media (reference should be made to Table 3) and statically incubated at 37° C. for 18 hours (preculturing). • 3) Preculturing was continued up to McFarland 0.5 (McFarland 0.5=about 10^8 CFU/ml), and then the culture broths were diluted with Muellar Hinton Broth to make 10^6 CFU/ml. 5 μl each of the diluted solutions were inoculated on the above-mentioned drug plates by an inoculator Microplanter. […] Thus, bacterial solutions at about 10^8 CFU/ml can be easily prepared by use of McFarland 0.5. Bacterial solutions at such a turbidity are commercially available, but can be easily prepared.

Experiment [2] concerns Moraxella (Branhamella) catarrhalis ATCC43617. How it is done: as §1
Experiment [3] relates to Pseudomonas aeruginosa ATCC27853. How it is done:
as §1

Experiment [4] has as its system Serratia marcescens ATCC13880. How it is done:
as §1

Experiment [5] deals with Staphylococcus aureus ATCC29247. How it is done: as §1
The subject of experiment [6] is Staphylococcus aureus ATCC6538P. How it is done:
as §1

Experiment [7] relates to Streptococcus agalactiae ATCC13813. How it is done:
as §1

The subject of experiment [8] is Streptococcus pneumoniae ATCC49619. How it is done:
as §1

Experiment [9] has as its system Streptococcus pneumoniae ATCC6301. How it is done: as §1
For experiment [10], the system named is Streptococcus pneumoniae ATCC6302. How it is done: as §1
For experiment [11], the system named is Streptococcus pneumoniae ATCC6303. How it is done:
as §1

Experiment [12] relates to Streptococcus pneumoniae ATCC6306. How it is done: as §1
Experiment [13] deals with Streptococcus pyogenes ATCC12344. How it is done: as §1
For experiment [14], the system named is Streptococcus pyogenes ATCC12353. How it is done:
as §1

For experiment [15], the system named is Streptococcus pyogenes ATCC12385. How it is done:
as §1

The term MIC denotes the lowest concentration found to suppress growth.

≈ marks a conversion by molar mass, not a printed value.

`CN(C)[C@@H]1C(O)=C(C(N)=O)C(=O)[C@@]2(O)C(O)=C3C(=O)c4c(O)cccc4[C@@](C)(O)[C@H]3C[C@@H]12` [TC, Tetracycline]: the MIC in experiment [1] was 0.2 µg/mL (≈ 0.45 µM); in experiment [2], 0.2 µg/mL (≈ 0.45 µM); in [3] it was 12.5 µg/mL (≈ 28.1 µM); in experiment [4], 100 µg/mL (≈ 225 µM); in experiment [5], 0.78 µg/mL (≈ 1.76 µM); in [6], 0.2 µg/mL (≈ 0.45 µM). In addition, the MIC in [7] was determined as 0.2 µg/mL (≈ 0.45 µM); in [8] it was 0.1 µg/mL (≈ 0.225 µM); in [9] it was 0.1 µg/mL (≈ 0.225 µM); in experiment [10] it was 0.2 µg/mL (≈ 0.45 µM); in [11] it was 0.1 µg/mL (≈ 0.225 µM); in experiment [12], 0.2 µg/mL (≈ 0.45 µM). Further, the MIC in [13], in experiment [14] and in [15] was 0.2 µg/mL (≈ 0.45 µM) in each case.
